Values quoted from earlier work in patent US6699900B2, “Hydrophilic and lipophilic silibinin pro-forms” (priority 2001, dated 2004).

Conditions: Merck Index, Reference 8680

- solubility in aqueous or lipophilic phases: not readily soluble
SMILES: COc1cc(C2Oc3cc([C@H]4Oc5cc(O)cc(O)c5C(=O)[C@@H]4O)ccc3OC2CO)ccc1O (stereo partly shown) [silibinin]
